# Entries after “also recorded” stand apart in the source; their conditions may differ.
# Test system: fructose-fed and fat-fed/STZ rat models
# Test: NDGA versus metformin at equimolar doses in fructose-fed and fat-fed/STZ rat models
# Type: in vivo
# Settings: equimolar doses of NDGA or metformin
# Description: NDGA has been studied by administering it orally to animals to determine its effectiveness for lowering glucose, free fatty acid (FFA) and triglyceride levels. […] See Example 2 below. […] There was no significant baseline difference between the NDGA and metformin groups.
# In one such study, the effects of NDGA and metformin as a control drug for treatment of diabetes were studied in a non-diabetic model of hypertriglyceridemia (fructose-fed) and a non-genetic, (i.e., streptozotocin (STZ) treated) model of diabetes. […] See FIGS. 2 (glucose) and 3 (triglycerides).
compound,measurement,value
CN(C)C(=N)N=C(N)N [metformin],change in insulin concentrations,without changing insulin concentration; also recorded: without any change in insulin concentrations
same,glucose lowering in comparison to the vehicle control,significantly lowered glucose
same,triglyceride lowering in comparison to the vehicle control,significantly lowered triglycerides

# — patent US9198879B2, “Pharmacologically optimized multimodal drug delivery system for nordihydroguiaretic acid (NDGA)” (Napo Pharmaceuticals, Inc., priority 2011, dated 2015)
